We go through 7 compounds from publication PMC6759747.

Structures are written as SMILES.

This data set in a line: on-resin side-chain-to-N-terminus lactamisation (lanthionine D-half alpha-COOH + N-terminal amine); PyAOP 5 eq, HOAt 5 eq, DIPEA 10 eq, after TBAF (Teoc/TMSE) and piperidine (Fmoc) removal; NovaSyn TGT low-loading resin. Particulars: the molecule shown is the open-chain precursor, DMF, 60.0 °C.

As to `*OC(=O)[C@H](CCCCNC(=O)OC(C)(C)C)NC(=O)[C@H](CSC[C@@H](N)C(=O)O)NC(=O)CNC(=O)[C@@H]1CCCN1`, the ring closure, overall yield (13-membered ring, 3.1 h) is 7%.
Take `*OC(=O)[C@H](CCCCNC(=O)OC(C)(C)C)NC(=O)[C@H](CS[C@@H](C)[C@@H](N)C(=O)O)NC(=O)CNC(=O)[C@@H]1CCCN1`: the ring closure, overall yield (13-membered ring, 5.1 h) stood at 37%.
Regarding `*OC(=O)[C@H](C)NC(=O)[C@H](CSC[C@@H](N)C(=O)O)NC(=O)[C@H](CC(C)C)NC(=O)[C@H](CSC(c1ccccc1)(c1ccccc1)c1ccccc1)NC(=O)[C@@H](N)CC(C)C`, the ring closure, overall yield (16-membered ring, 3.1 h) was found to be 15%.
Consider `*OC(=O)[C@H](C)NC(=O)[C@H](CSC[C@@H](N)C(=O)O)NC(=O)[C@H](CC(C)C)NC(=O)[C@H](CSC(c1ccccc1)(c1ccccc1)c1ccccc1)NC(=O)[C@@H](N)[C@@H](C)CC`, for which the ring closure, overall yield (16-membered ring, 3.1 h) turned out to be 11%.
With `*OC(=O)[C@H](C)NC(=O)[C@H](CSC[C@@H](N)C(=O)O)NC(=O)[C@H](CC(C)C)NC(=O)[C@H](COC(C)(C)C)NC(=O)[C@@H](N)CC(C)C`, under “16-membered ring, 3.1 h”, the ring closure, overall yield worked out at 5%.
With `*OC(=O)[C@@H](NC(=O)[C@H](CSC[C@@H](N)C(=O)O)NC(=O)CNC(=O)[C@@H](N)CC(C)C)[C@@H](C)OC(C)(C)C`, the ring closure, overall yield (13-membered ring, 3.1 h) came out at 34%.
In the case of `*OC(=O)[C@H](C)NC(=O)[C@H](CSC[C@@H](N)C(=O)O)NC(=O)[C@H](CC(C)C)NC(=O)[C@H](C)NC(=O)[C@@H](N)CC(C)C`, the ring closure, overall yield (16-membered ring, 3.1 h) worked out at 3%.
